Measured values reported in the NIST ThermoML archive (doi:10.1021/acs.jced.6b00606).
± gives the expanded uncertainty stated by the source.

Columns and labels:
[1] = molar heat capacity at constant pressure; settings: 101.33 kPa, Liquid, Extra sensitive DSC
[2] = Liquid; for speed of sound: 100 kPa, Frequency=3 MHz, Sing-around technique in a fixed-path interferometer; for mass density: 101.33 kPa, Vibrating tube method

C1COCCO1 [1,4-dioxane]
molar heat capacity at constant pressure ([1]; 293.15 K): 151.62 ± 5.9 J/K/mol
molar heat capacity at constant pressure ([1]; 298.15 K): 152.76 ± 5.9 J/K/mol
molar heat capacity at constant pressure ([1]; 303.15 K): 153.92 ± 6 J/K/mol
molar heat capacity at constant pressure ([1]; 308.15 K): 155.09 ± 6 J/K/mol
speed of sound ([2]; 293.15 K): 1367.8 ± 1.5 m/s
mass density ([2]; 293.15 K): 1033.59 ± 1 kg/m3
speed of sound ([2]; 298.15 K): 1346 ± 1.5 m/s
mass density ([2]; 298.15 K): 1027.94 ± 1 kg/m3
speed of sound ([2]; 303.15 K): 1324.4 ± 1.5 m/s
mass density ([2]; 303.15 K): 1022.28 ± 1 kg/m3
speed of sound ([2]; 308.15 K): 1302.5 ± 1.5 m/s
mass density ([2]; 308.15 K): 1016.59 ± 1 kg/m3

O=C1CCCCCC1 [cycloheptanone]
molar heat capacity at constant pressure ([1]; 293.15 K): 201.11 ± 7.8 J/K/mol
molar heat capacity at constant pressure ([1]; 298.15 K): 202.01 ± 7.8 J/K/mol
molar heat capacity at constant pressure ([1]; 303.15 K): 203.21 ± 7.9 J/K/mol
molar heat capacity at constant pressure ([1]; 308.15 K): 204.51 ± 7.9 J/K/mol
speed of sound ([2]; 293.15 K): 1477.3 ± 1.6 m/s
mass density ([2]; 293.15 K): 951.85 ± 1 kg/m3
speed of sound ([2]; 298.15 K): 1455 ± 1.6 m/s
mass density ([2]; 298.15 K): 947.62 ± 1 kg/m3
speed of sound ([2]; 303.15 K): 1432.4 ± 1.6 m/s
mass density ([2]; 303.15 K): 943.38 ± 1 kg/m3
speed of sound ([2]; 308.15 K): 1409.6 ± 1.6 m/s
mass density ([2]; 308.15 K): 939.14 ± 1 kg/m3

O=C1CCCCC1 [cyclohexanone]
molar heat capacity at constant pressure ([1]; 293.15 K): 176.17 ± 6.8 J/K/mol
molar heat capacity at constant pressure ([1]; 298.15 K): 178.27 ± 6.9 J/K/mol
molar heat capacity at constant pressure ([1]; 303.15 K): 180.38 ± 7 J/K/mol
molar heat capacity at constant pressure ([1]; 308.15 K): 182.46 ± 7.1 J/K/mol
speed of sound ([2]; 293.15 K): 1431.2 ± 1.3 m/s
mass density ([2]; 293.15 K): 947.38 ± 1 kg/m3
speed of sound ([2]; 298.15 K): 1415.5 ± 1.3 m/s
mass density ([2]; 298.15 K): 942.92 ± 1 kg/m3
speed of sound ([2]; 303.15 K): 1395.1 ± 1.3 m/s
mass density ([2]; 303.15 K): 938.07 ± 1 kg/m3
speed of sound ([2]; 308.15 K): 1375.1 ± 1.3 m/s
mass density ([2]; 308.15 K): 933.19 ± 1 kg/m3

C1CCOCC1 [tetrahydropyran]
molar heat capacity at constant pressure ([1]; 293.15 K): 148.03 ± 5.7 J/K/mol
molar heat capacity at constant pressure ([1]; 298.15 K): 149.68 ± 5.8 J/K/mol
molar heat capacity at constant pressure ([1]; 303.15 K): 151.18 ± 5.9 J/K/mol
molar heat capacity at constant pressure ([1]; 308.15 K): 153.01 ± 5.9 J/K/mol
speed of sound ([2]; 293.15 K): 1293 ± 1.4 m/s
mass density ([2]; 293.15 K): 884.23 ± 1 kg/m3
speed of sound ([2]; 298.15 K): 1269.7 ± 1.4 m/s
mass density ([2]; 298.15 K): 879.09 ± 1 kg/m3
speed of sound ([2]; 303.15 K): 1246.7 ± 1.4 m/s
mass density ([2]; 303.15 K): 873.91 ± 1 kg/m3
speed of sound ([2]; 308.15 K): 1224.3 ± 1.4 m/s
mass density ([2]; 308.15 K): 868.75 ± 1 kg/m3
